Test results: patent US20110209228A1, “METHOD OF TREATMENT USING ANTIMICROBIAL COMPOSITION” (priority 2008, published 2011)

System: E. coli TOP10
Assay: growth inhibition screen by expression of the peptide in host bacteria (pBAD/gIIIA, L-arabinose induction, OD600)
Type: cell-based
Conditions: E. coli TOP10, OD600 before and 4 hours after L-arabinose induction

Row | Substance | antimicrobial activity: inhibiting bacterial growth and/or killing bacteria on expression (in words)
1 | 5: antimicrobial peptide produced by mutagenesis based on SEQ ID NO: 7 and/or 8 (chain 1 SSRSAAGTIWEFEAF; chain 2 MVKRGLGKNLKRRATKIGNGIKNTLRNFNVVFPIPRPG; Consensus sequence of antimicrobial peptide; Antimicrobial peptide 5) [compound 5] | having antimicrobial activity
2 | 10: antimicrobial peptide produced by mutagenesis based on SEQ ID NO: 7 and/or 8 (MVKRGFGKRLRKRPKKFRNSIKKRLKNFNVVFPVPRPG; antimicrobial peptide A12) [compound 10] | having antimicrobial activity
3 | 13: antimicrobial peptide produced by mutagenesis based on SEQ ID NO: 7 and/or 8 (MVKRGFWKSLKRKLKKFGMILGID; Antimicrobial peptide 13) [compound 13] | having antimicrobial activity
4 | 20: antimicrobial peptide produced by mutagenesis based on SEQ ID NO: 7 and/or 8 (MVKRGFGESLRRRVTKLRDDIKKH; Antimicrobial peptide 20) [compound 20] | having antimicrobial activity
5 | 28: antimicrobial peptide produced by mutagenesis based on SEQ ID NO: 7 and/or 8 (chain 1 MVLGGFSRCRWLEEKLRDFMKNLVVRIAG; chain 2 MVKRGLGEKLRRRPKKFGIVLGIH; Antimicrobial peptide F7; Antimicrobial peptide 28) [compound 28] | having antimicrobial activity
6 | A4: antimicrobial peptide produced by mutagenesis based on SEQ ID NO: 7 and/or 8 (MVKRGFGKNLRRRPTKFRNSIRNRLKNFNIEFPVPRQG; Antimicrobial peptide A4) | having antimicrobial activity
7 | A5: antimicrobial peptide produced by mutagenesis based on SEQ ID NO: 7 and/or 8 (MVKRGFWKKLKRKAKKFRNSIRKTLKNFNIIIPVPLPG; Antimicrobial peptide A5) | having antimicrobial activity
8 | A6: antimicrobial peptide produced by mutagenesis based on SEQ ID NO: 7 and/or 8 (MVKRGLGKKLKKKPKKFRNSIKKRLKNFNIEIPIPRQG; Antimicrobial peptide A6) | having antimicrobial activity
9 | A10: antimicrobial peptide produced by mutagenesis based on SEQ ID NO: 7 and/or 8 (MVKRGFGKKLKKKAKKFRNSIRKRLKNFNVKIPVPLPG; Antimicrobial peptide A10) | having antimicrobial activity
10 | A11: antimicrobial peptide produced by mutagenesis based on SEQ ID NO: 7 and/or 8 (MVKRGFGKKLRKRATKFRNSIRKRLKNFNIIFPVPRQG; Antimicrobial peptide A11) | having antimicrobial activity
11 | A12: antimicrobial peptide produced by mutagenesis based on SEQ ID NO: 7 and/or 8 (MVKRGFGKRLRKRPKKFRNSIKKRLKNFNVVFPVPRPG; antimicrobial peptide A12) | having antimicrobial activity
12 | B1: peptide by mutagenesis based on a consensus sequence for antimicrobial C-terminal fragments of cathelicidin proteins (MVLGDLLRRVGGKFEEFFGKIRETIRTIRICSHLLLRGSSRSAAGTIWEFEAF; Antimicrobial peptide B1) | having antimicrobial activity
13 | E3: peptide by mutagenesis based on a consensus sequence for antimicrobial C-terminal fragments of cathelicidin proteins (MVLGGCLRKGGGRLVGMFGRFRATLKNLLDMLGRRIEG; Antimicrobial peptide E3) | having antimicrobial activity
14 | F4: peptide by mutagenesis based on a consensus sequence for antimicrobial C-terminal fragments of cathelicidin proteins (MVLGGRSGKVRERFRRIFERYEAKIRTFMEILAAPSQD; Antimicrobial peptide F4) | having antimicrobial activity
15 | F6: peptide by mutagenesis based on a consensus sequence for antimicrobial C-terminal fragments of cathelicidin proteins (MVLRGFLKRFGGKILRNRGRDGATLKDFLKMIATRIPH; Antimicrobial peptide F6) | having antimicrobial activity
16 | F7: peptide by mutagenesis based on a consensus sequence for antimicrobial C-terminal fragments of cathelicidin proteins (MVLGGFSRCRWLEEKLRDFMKNLVVRIAG; Antimicrobial peptide F7) | having antimicrobial activity
17 | F12: peptide by mutagenesis based on a consensus sequence for antimicrobial C-terminal fragments of cathelicidin proteins (MVIGDRFKKFRERLVELRGRNGARLRPLMNIMGGRSAG; Antimicrobial peptide F12) | having antimicrobial activity
18 | G9: peptide by mutagenesis based on a consensus sequence for antimicrobial C-terminal fragments of cathelicidin proteins (MVLGGFLRNVRWEIWKKGLSLFCQISYFVVRSSSRSAAGTIWEFEAF; Antimicrobial peptide G9) | having antimicrobial activity
19 | G10: peptide by mutagenesis based on a consensus sequence for antimicrobial C-terminal fragments of cathelicidin proteins (MVIRGLLKRGKGRILGLLGRNGKRLRAIMDMFRRRSQQ; Antimicrobial peptide G10) | having antimicrobial activity
20 | H6: peptide by mutagenesis based on a consensus sequence for antimicrobial C-terminal fragments of cathelicidin proteins (MVIGDCLRRVRGSLENTVRDLNQGLGILRLRW; Antimicrobial peptide H6) | having antimicrobial activity
